The values that follow are results of earlier work, collected in US20050181032A1, “Metastable pharmaceutical compositions” (Acrux DDS Pty Ltd., priority 2002, published 2005).

Structures are written as SMILES.

Turning to `C#C[C@]1(O)CC[C@H]2[C@@H]3CCc4cc(O)ccc4[C@H]3CC[C@@]21C` [EE2, Ethinyl Estradiol], the LogP is 3.91.

One may read the LogP as a log measure of how a compound divides between an organic and an aqueous phase.
